For this assay, the target named is CDK4 (Homo sapiens, UniProt P11802+Q16531). Kind of assay: CDK4 percentage degradation in Calu-1 cells (Table 6). Type of assay: cell-based. On the set-up: Cells that express cyclin D1-3 and CDK4/6 proteins were treated with heterobifunctional compounds; endogenous in cells; host or cells: Calu-1. The settings on record: 16 hours; for inhibition at 0.04 µM: 40 nM; for inhibition at 0.2 µM: 200 nM. Put shortly:
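Calu-1 cells exposed to heterobifunctional compounds at 40 nM or 200 nM for 16 h. Cyclin D1 and CDK4 levels measured by Western blot of RIPA lysates (BCA-normalised loading), bands quantified by densitometry and expressed as percentage degradation.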

Molecules are shown by their SMILES.

Sequence of CDK4 (P11802 2-303 limits assumed): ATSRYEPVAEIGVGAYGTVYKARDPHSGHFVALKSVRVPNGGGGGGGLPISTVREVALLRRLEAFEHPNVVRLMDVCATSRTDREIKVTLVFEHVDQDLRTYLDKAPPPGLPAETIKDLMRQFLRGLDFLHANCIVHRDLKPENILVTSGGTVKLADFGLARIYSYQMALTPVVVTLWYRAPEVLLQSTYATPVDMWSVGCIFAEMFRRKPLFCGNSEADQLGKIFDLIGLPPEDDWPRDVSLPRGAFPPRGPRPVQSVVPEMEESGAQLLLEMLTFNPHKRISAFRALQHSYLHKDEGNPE
Sequence of CDK4 (P24385 whole entry partner): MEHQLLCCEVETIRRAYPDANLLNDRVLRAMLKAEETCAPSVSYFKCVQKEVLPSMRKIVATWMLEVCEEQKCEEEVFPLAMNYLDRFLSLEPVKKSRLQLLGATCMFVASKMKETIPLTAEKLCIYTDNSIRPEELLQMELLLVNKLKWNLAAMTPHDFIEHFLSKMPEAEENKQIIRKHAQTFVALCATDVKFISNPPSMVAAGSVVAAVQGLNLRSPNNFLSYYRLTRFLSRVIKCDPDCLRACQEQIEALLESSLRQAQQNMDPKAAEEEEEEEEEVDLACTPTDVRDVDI
Sequence of CDK4 (Q16531 2-1140 limits assumed): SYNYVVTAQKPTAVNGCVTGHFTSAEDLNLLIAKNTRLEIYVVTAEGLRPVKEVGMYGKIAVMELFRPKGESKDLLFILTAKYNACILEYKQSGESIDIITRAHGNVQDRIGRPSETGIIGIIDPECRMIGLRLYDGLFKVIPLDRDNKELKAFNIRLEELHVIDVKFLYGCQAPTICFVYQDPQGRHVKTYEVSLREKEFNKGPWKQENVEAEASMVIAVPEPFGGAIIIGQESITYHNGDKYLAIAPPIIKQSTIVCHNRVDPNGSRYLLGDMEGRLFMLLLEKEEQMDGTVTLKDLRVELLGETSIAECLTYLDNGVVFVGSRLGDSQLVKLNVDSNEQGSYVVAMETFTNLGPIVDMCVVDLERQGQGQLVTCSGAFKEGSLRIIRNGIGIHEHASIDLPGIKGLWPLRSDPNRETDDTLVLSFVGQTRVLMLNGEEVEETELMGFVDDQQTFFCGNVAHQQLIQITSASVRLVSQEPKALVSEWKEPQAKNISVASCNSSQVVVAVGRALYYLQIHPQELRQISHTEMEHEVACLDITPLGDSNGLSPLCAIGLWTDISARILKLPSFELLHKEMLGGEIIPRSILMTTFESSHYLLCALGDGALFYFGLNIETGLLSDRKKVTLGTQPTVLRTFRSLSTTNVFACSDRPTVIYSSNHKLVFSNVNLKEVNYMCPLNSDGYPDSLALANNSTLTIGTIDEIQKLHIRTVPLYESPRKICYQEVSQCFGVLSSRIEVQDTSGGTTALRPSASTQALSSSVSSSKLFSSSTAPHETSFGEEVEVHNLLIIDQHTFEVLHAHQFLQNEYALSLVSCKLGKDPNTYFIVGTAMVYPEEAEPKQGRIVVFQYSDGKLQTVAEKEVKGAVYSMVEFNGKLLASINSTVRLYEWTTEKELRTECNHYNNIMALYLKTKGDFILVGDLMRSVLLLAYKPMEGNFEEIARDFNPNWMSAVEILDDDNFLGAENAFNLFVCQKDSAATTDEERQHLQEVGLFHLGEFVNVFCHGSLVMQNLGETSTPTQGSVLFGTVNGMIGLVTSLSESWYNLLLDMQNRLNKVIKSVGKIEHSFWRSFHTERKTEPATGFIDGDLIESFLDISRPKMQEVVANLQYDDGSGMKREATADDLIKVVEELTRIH

Compound `CNc1ccc(C(=O)Nc2ccn(C)c2)c(NC2CC3(CC(NC(=O)CN4CCN(c5ccc(Nc6ncc7c(C)c(C(C)=O)c(=O)n(C8CCCC8)c7n6)nc5)CC4)C3)C2)n1` (centres unmarked) [CPD-183, 2-((6-(2-(4-(6-((6-acetyl-8-cyclopentyl-5-methyl-7-oxo-7,8-dihydropyrido[2,3-d]pyrimidin-2-yl)amino)pyridin-3-yl)piperazin-1-yl)acetamido)spiro[3.3]heptan-2-yl)amino)-N-(1-methyl-1H-pyrrol-3-yl)-6-(methylamino)nicotinamide] came in with an inhibition at 0.04 µM of 50 to 80% and an inhibition at 0.2 µM of 50 to 80%.
`CNc1ccc(C(=O)Nc2cccc(C3CC3)n2)c(NC[C@H]2CC[C@H](NC(=O)CN3CCN(c4ccc(Nc5ncc6c(C)c(C(C)=O)c(=O)n(C7CCCC7)c6n5)nc4)CC3)CC2)n1` [CPD-154, 2-(((trans-4-(2-(4-(6-((6-acetyl-8-cyclopentyl-5-methyl-7-oxo-7,8-dihydropyrido[2,3-d]pyrimidin-2-yl)amino)pyridin-3-yl)piperazin-1-yl)acetamido)cyclohexyl)methyl)amino)-N-(6-cyclopropylpyridin-2-yl)-6-(methylamino)nicotinamide] had an inhibition at 0.04 µM below 30% and an inhibition at 0.2 µM below 30%.
For `CNc1ccc(C(=O)Nc2ccc(N(C)C)nn2)c(NC2CC3(CC(NCCN4CCN(c5ccc(Nc6ncc7c(C)c(C(C)=O)c(=O)n(C8CCCC8)c7n6)nc5)CC4)C3)C2)n1` (centres unmarked) [CPD-96, 2-((6-((2-(4-(6-((6-Acetyl-8-cyclopentyl-5-methyl-7-oxo-7,8-dihydropyrido[2,3-d]pyrimidin-2-yl)amino)pyridin-3-yl)piperazin-1-yl)ethyl)amino)spiro[3.3]heptan-2-yl)amino)-N-(6-(dimethylamino)pyridazin-3-yl)-6-(methylamino)nicotinamide], the inhibition at 0.04 µM was below 30% and the inhibition at 0.2 µM is below 30%.
For the compound `CC(=O)c1c(C)c2cnc(Nc3ccc(N4CCN(CC(=O)NCC5CC(Nc6nc(C7CC7)ccc6C(=O)Nc6cc(C)n(C)n6)C5)CC4)cn3)nc2n(C2CCCC2)c1=O` (centres unmarked) [CPD-213, 2-((3-((2-(4-(6-((6-acetyl-8-cyclopentyl-5-methyl-7-oxo-7,8-dihydropyrido[2,3-d]pyrimidin-2-yl)amino)pyridin-3-yl)piperazin-1-yl)acetamido)methyl)cyclobutyl)amino)-6-cyclopropyl-N-(1,5-dimethyl-1H-pyrazol-3-yl)nicotinamide], the inhibition at 0.04 µM lay in the range of 30 to 50% and the inhibition at 0.2 µM was in the range of 50 to 80%.
In the same order, the values of `CNc1ccc(C(=O)NC2CC(CN(C)C)C2)c(NCCCCCNC(=O)CN2CCN(c3ccc(Nc4ncc5c(C)c(C(C)=O)c(=O)n(C6CCCC6)c5n4)nc3)CC2)n1` (centres unmarked) [CPD-65, 2-((5-(2-(4-(6-((6-Acetyl-8-cyclopentyl-5-methyl-7-oxo-7,8-dihydropyrido[2,3-d]pyrimidin-2-yl)amino)pyridin-3-yl)piperazin-1-yl)acetamido)pentyl)amino)-N-(3-((dimethylamino)methyl)cyclobutyl)-6-(methylamino)nicotinamide] are below 30% and below 30%.
On the same counts, the results for `[2H]C([2H])([2H])Nc1ccc(C(=O)Nc2cc(C)n(C)n2)c(NC2CN(C(=O)C(F)(F)CN3CCN(c4ccc(Nc5ncc6c(C)c(C(C)=O)c(=O)n(C7CCCC7)c6n5)nc4)CC3)C2)n1` [CPD-233, 2-((1-(3-(4-(6-((6-acetyl-8-cyclopentyl-5-methyl-7-oxo-7,8-dihydropyrido[2,3-d]pyrimidin-2-yl)amino)pyridin-3-yl)piperazin-1-yl)-2,2-difluoropropanoyl)azetidin-3-yl)amino)-N-(1,5-dimethyl-1H-pyrazol-3-yl)-6-((methyl-d3)amino)nicotinamide] are below 30% and 30 to 50%.
In the same order, the values of `CNc1ccc(C(=O)Nc2ccc(OC)c(C3CC3)n2)c(NC2CC3(CC(NC(=O)CN4CCN(c5ccc(Nc6ncc7c(C)c(C(C)=O)c(=O)n(C8CCCC8)c7n6)nc5)CC4)C3)C2)n1` (centres unmarked) [CPD-125, 2-((6-(2-(4-(6-((6-Acetyl-8-cyclopentyl-5-methyl-7-oxo-7,8-dihydropyrido[2,3-d]pyrimidin-2-yl)amino)pyridin-3-yl)piperazin-1-yl)acetamido)spiro[3.3]heptan-2-yl)amino)-N-(6-cyclopropyl-5-methoxypyridin-2-yl)-6-(methylamino)nicotinamide] are 30 to 50% and 30 to 50%.
As to `CNc1ccc(C(=O)Nc2ccc(N(C)C)nn2)c(NC2CC(CCC(=O)N3CCN(c4ccc(Nc5ncc6c(C)c(C(C)=O)c(=O)n(C7CCCC7)c6n5)nc4)CC3)C2)n1` (centres unmarked) [CPD-185, 2-((3-(3-(4-(6-((6-acetyl-8-cyclopentyl-5-methyl-7-oxo-7,8-dihydropyrido[2,3-d]pyrimidin-2-yl)amino)pyridin-3-yl)piperazin-1-yl)-3-oxopropyl)cyclobutyl)amino)-N-(6-(dimethylamino)pyridazin-3-yl)-6-(methylamino)nicotinamide], the inhibition at 0.04 µM was below 30% and the inhibition at 0.2 µM is 30 to 50%.
On the same counts, the results for `CNc1ccc(C(=O)Nc2nc(C3CC3)ccc2F)c(NC2CC3(CC(NC(=O)CN4CCN(c5ccc(Nc6ncc7c(C)c(C(C)=O)c(=O)n(C8CCCC8)c7n6)nc5)CC4)C3)C2)n1` (centres unmarked) [CPD-114, 2-((6-(2-(4-(6-((6-Acetyl-8-cyclopentyl-5-methyl-7-oxo-7,8-dihydropyrido[2,3-d]pyrimidin-2-yl)amino)pyridin-3-yl)piperazin-1-yl)acetamido)spiro[3.3]heptan-2-yl)amino)-N-(6-cyclopropyl-3-fluoropyridin-2-yl)-6-(methylamino)nicotinamide] are below 30% and below 30%.
The compound `CNc1ccc(C(=O)Nc2ccc(C)c(C)n2)c(NCCCCCNC(=O)CN2CCN(c3ccc(Nc4ncc5c(C)c(C(C)=O)c(=O)n(C6CCCC6)c5n4)nc3)CC2)n1` [CPD-109, 2-((5-(2-(4-(6-((6-Acetyl-8-cyclopentyl-5-methyl-7-oxo-7,8-dihydropyrido[2,3-d]pyrimidin-2-yl)amino)pyridin-3-yl)piperazin-1-yl)acetamido)pentyl)amino)-N-(5,6-dimethylpyridin-2-yl)-6-(methylamino)nicotinamide] returned an inhibition at 0.04 µM of 50 to 80% and an inhibition at 0.2 µM of 50 to 80%.
Take `CNc1ccc(C(=O)Nc2cccc(C)n2)c(NC2CC3(C2)CN(C(=O)C(C)(C)N2CCN(c4ccc(Nc5ncc6c(C)c(C(C)=O)c(=O)n(C7CCCC7)c6n5)nc4)CC2)C3)n1` [CPD-176, 2-((2-(2-(4-(6-((6-acetyl-8-cyclopentyl-5-methyl-7-oxo-7,8-dihydropyrido[2,3-di]pyrimidin-2-yl)amino)pyridin-3-yl)piperazin-1-yl)-2-methylpropanoyl)-2-azaspiro[3.3]heptan-6-yl)amino)-6-(methylamino)-N-(6-methylpyridin-2-yl)nicotinamide]: the inhibition at 0.04 µM is below 30% and the inhibition at 0.2 µM is 50 to 80%.
For `CC(=O)c1c(C)c2cnc(Nc3ccc(N4CCN(CC(=O)NCCCCCNc5nc(NC6CCC6)ccc5C(=O)Nc5ccc(N(C)C)nn5)CC4)cn3)nc2n(C2CCCC2)c1=O` [CPD-59, 2-((5-(2-(4-(6-((6-Acetyl-8-cyclopentyl-5-methyl-7-oxo-7,8-dihydropyrido[2,3-d]pyrimidin-2-yl)amino)pyridin-3-yl)piperazin-1-yl)acetamido)pentyl)amino)-6-(cyclobutylamino)-N-(6-(dimethylamino)pyridazin-3-yl)nicotinamide], the inhibition at 0.04 µM was 50 to 80% and the inhibition at 0.2 µM was 50 to 80%.
For `CNc1ccc(C(=O)Nc2ccc(N(C)C)nn2)c(NC(=O)CN2CCN(c3ccc(Nc4ncc5c(C)c(C(C)=O)c(=O)n(C6CCCC6)c5n4)nc3)CC2)n1` [CPD-194, 2-(2-(4-(6-((6-acetyl-8-cyclopentyl-5-methyl-7-oxo-7,8-dihydropyrido[2,3-d]pyrimidin-2-yl)amino)pyridin-3-yl)piperazin-1-yl)acetamido)-N-(6-(dimethylamino)pyridazin-3-yl)-6-(methylamino)nicotinamide], the inhibition at 0.04 µM was below 30% and the inhibition at 0.2 µM was below 30%.
`CNc1ccc(C(=O)Nc2ccc(N(C)C)cn2)c(NCCCCCNC(=O)CN2CCN(c3ccc(Nc4ncc5c(C)c(C(C)=O)c(=O)n(C6CCCC6)c5n4)nc3)CC2)n1` [CPD-47, 2-((5-(2-(4-(6-((6-Acetyl-8-cyclopentyl-5-methyl-7-oxo-7,8-dihydropyrido[2,3-d]pyrimidin-2-yl)amino)pyridin-3-yl)piperazin-1-yl)acetamido)pentyl)amino)-N-(5-(dimethylamino)pyridin-2-yl)-6-(methylamino)nicotinamide] returned an inhibition at 0.04 µM below 30% and an inhibition at 0.2 µM of 50 to 80%.
The compound `CNc1ccc(C(=O)Nc2cccc(C#N)n2)c(NC2CC3(CC(NC(=O)CN4CCN(c5ccc(Nc6ncc7c(C)c(C(C)=O)c(=O)n(C8CCCC8)c7n6)nc5)CC4)C3)C2)n1` (centres unmarked) [CPD-90, 2-((6-(2-(4-(6-((6-Acetyl-8-cyclopentyl-5-methyl-7-oxo-7,8-dihydropyrido[2,3-d]pyrimidin-2-yl)amino)pyridin-3-yl)piperazin-1-yl)acetamido)spiro[3.3]heptan-2-yl)amino)-N-(6-cyanopyridin-2-yl)-6-(methylanino)nicotinamide] had an inhibition at 0.04 µM below 30% and an inhibition at 0.2 µM of 50 to 80%.
As to `[2H]C([2H])([2H])Nc1ccc(C(=O)Nc2ccc(N(C)C)nn2)c(NC2CC(NC(=O)CN3CCN(c4ccc(Nc5ncc6c(C)c(C(C)=O)c(=O)n(C7CCCC7)c6n5)nc4)CC3)C2)n1` (centres unmarked) [CPD-245, 2-((3-(2-(4-(6-((6-acetyl-8-cyclopentyl-5-methyl-7-oxo-7,8-dihydropyrido[2,3-d]pyrimidin-2-yl)amino)pyridin-3-yl)piperazin-1-yl)acetamido)cyclobutyl)amino)-N-(6-(dimethylamino)pyridazin-3-yl)-6-((methyl-d3)amino)nicotinamide], the inhibition at 0.04 µM lay within 30 to 50% and the inhibition at 0.2 µM was in the range of 50 to 80%.

(Values after patent US20260297081A1, “COMPOUNDS AND METHODS OF TREATING CANCERS” (Cullgen Inc., priority 2023, published 2026).)
